From patent US9044442B2, “Peptidomimetic compounds as immunomodulators” (AURIGENE DISCOVERY TECHNOLOGIES LIMITED, priority 2012, dated 2015)

How the values were obtained:
[1] = system: MDA-MB-231 tumor cells expressing PD-L1; assay: Rescue of mouse splenocyte proliferation inhibited by MDA-MB-231 tumor cells expressing PD-L1 (CFSE based assay); assay type: cell-based; conditions: for Fold induction: % splenocyte proliferation / % background proliferation, background 1.0, stimulated 3.7; for % Splenocyte proliferation: mouse splenocytes + anti-CD3/CD28 + MDA-MB-231 cells + compound, 72 hrs, background 20, stimulated 74
From the text: (§1) The effect of PD1 derived peptidomimetics on mouse splenocyte proliferation inhibited by recombinant PDL1 or tumor cells expressing PDL; analyzed by Fluorescence Activated Cell Shorting (FACS) method using CFSE (Carboxyfluorescein Diacetate Succinimidyl Ester) labeling.
Rescue of Mouse Splenocyte Proliferation in the Presence of Recombinant PD-L1/MDA MB-231 Cells Expressing PDL1: […]
(§2) Mouse splenocytes harvested from 6-8 weeks old C57 BL6 mice; RPMI 1640 (GIBCO, Cat #11875); DMEM with high glucose (GIBCO, Cat # D6429); Fetal Bovine Serum [Hyclone, Cat # SH30071.03]; Penicillin (10000 unit/ml)-Streptomycin (10,000 μg/ml) Liquid (GIBCO, Cat #15140-122); MEM Sodium Pyruvate solution 100 mM (100×), Liquid (GIBCO, Cat #11360); Nonessential amino acid (GIBCO, Cat #11140); L-Glutamine (GIBCO, Cat #25030); Anti-CD3 antibody (eBiosciences—16-0032); Anti-CD28 antibody (eBiosciences—16-0281); ACK lysis buffer (imp (GIBCO, Cat #-A10492); Histopaque (density-1.083 gm/ml) (SIGMA 10831); Trypan blue solution (SIGMA-T8154); 2 ml Norm Ject Luer Lock syringe—(Sigma 2014-12); 40 μm nylon cell strainer (BD FALCON 35230); Hemacytometer (Bright line-SIGMA Z359629); FACS Buffer (PBS/0.1% BSA): Phosphate Buffered Saline (PBS) pH 7.2 (HiMedia TS1006) with 0.1% Bovine Serum Albumin (BSA) (SIGMA A7050) and sodium azide (SIGMA 08591); 5 mM stock solution of CFSE: CFSE stock solution was prepared by diluting lyophilized CFSE with 180 μL of Di methyl Sulfoxide (DMSO C2H6SO, SIGMA-D-5879) and aliquoted in to tubes for further use. Working concentrations were titrated from 10 μM to 1 μM. (eBioscience—650850-85); 0.05% Trypsin and 0.02% EDTA (SIGMA 59417C); 96-well format ELISA plates (Corning CLS3390); BD FACS caliber (E6016); Recombinant Human B7-H1/PDL1 Fc Chimera (rh-PDL-1, cat no: 156-B7-100);
Splenocytes harvested in a 50 ml falcon tube by mashing mouse spleen in a 40 μm cell strainer were further treated with 1 ml ACK lysis buffer for 5 mins at room temperature. After washing with 9 ml of RPMI complete media, cells were re-suspended in 3 ml of 1×PBS in a 15 ml tube. 3 ml of Histopaque was added carefully to the bottom of the tube without disturbing overlaying splenocyte suspension. After centrifuging at 800×g for 20 mins at room temperature, the opaque layer of splenocytes was collected carefully without disturbing/mixing the layers. Splenocytes were washed twice with cold 1×PBS followed by total cell counting using Trypan Blue exclusion method and used further for cell based assays.
Splenocytes were cultured in RPMI complete media (RPMI+10% fetal bovine serum+1 mM sodium pyruvate+10,000 units/ml penicillin and 10,000 μg/ml streptomycin) and maintained in a CO2 incubator with 5% CO2 at 37° C.
CFSE is a dye that passively diffuses into cells and binds to intracellular proteins. 1×10^6 cells/ml of harvested splenocytes were treated with 5 μM of CFSE in pre-warmed 1×PBS/0.1% BSA solution for 10 mins at 37° C. Excess CFSE was quenched using 5 volumes of ice-cold culture media to the cells and incubated on ice for 5 mins. CFSE labelled splenocytes were further given three washes with ice cold complete RPMI media. CFSE labelled 1×10^5 splenocytes added to wells containing either MDA-MB231 cells (1×10^5 cells cultured in high glucose DMEM medium) or recombinant human PDL-1 (100 ng/ml) and test compounds. Splenocytes were stimulated with anti-mouse CD3 and anti-mouse CD28 antibody (1 μg/ml each), and the culture was further incubated for 72 hrs at 37° C. with 5% CO2. Cells were harvested and washed thrice with ice cold FACS buffer and % proliferation was analyzed by flow cytometry with 488 nm excitation and 521 nm emission filters.
(§3) Percent splenocyte proliferation was analyzed using cell quest FACS program and fold induction was calculated by normalizing individual values to % background proliferation. […]

[2] = system: CT26 (murine colon carcinoma) cells; assay: In vivo efficacy on primary tumour growth in CT-26 colon cancer model; set-up: species or system mouse; conditions: male Balb/c mice, 3 mg/kg
Procedure: Two million CT26 (murine colon carcinoma) cells injected to male Balb/c mice (s.c) on day 1 and dosing started on Day 5. Each group consisted of ten animals. Tumor volumes were measured 3 times a week, body weight and clinical signs monitored daily. Compound #2 dosed at 3 mg/kg, inhibited the tumour growth to the extent of 46 percent (p<0. p<0.01, 2-way ANOVA) (FIG. 2).

recombinant human PDL-1 = target: T1, recombinant human PDL-1 (Homo sapiens, UniProt Q9NZQ7); assay: Rescue of mouse splenocyte proliferation inhibited by recombinant human PDL-1 (CFSE, FACS); assay type: cell-based; conditions: mouse splenocytes, anti-CD3/CD28 stimulated, rh-PDL-1 100 ng/ml, 72 hrs
T1 construct: Fc (Fc chimera); purchased R&D Systems 156-B7-100
T1 sequence (Q9NZQ7 with tags, fused parts or gaps limits assumed): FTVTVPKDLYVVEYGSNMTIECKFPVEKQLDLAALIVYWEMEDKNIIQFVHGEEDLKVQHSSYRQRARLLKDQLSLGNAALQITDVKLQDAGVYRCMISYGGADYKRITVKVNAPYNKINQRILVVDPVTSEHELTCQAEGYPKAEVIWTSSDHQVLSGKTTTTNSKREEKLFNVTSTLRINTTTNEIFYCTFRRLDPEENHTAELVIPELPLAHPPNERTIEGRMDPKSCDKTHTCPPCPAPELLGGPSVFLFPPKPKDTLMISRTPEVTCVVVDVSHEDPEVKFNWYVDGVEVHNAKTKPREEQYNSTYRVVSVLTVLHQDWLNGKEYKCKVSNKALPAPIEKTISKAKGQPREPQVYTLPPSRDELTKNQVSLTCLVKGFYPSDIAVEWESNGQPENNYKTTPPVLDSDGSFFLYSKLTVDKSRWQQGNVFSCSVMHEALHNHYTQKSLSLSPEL
From the text: as §1
Rescue of Mouse Splenocyte Proliferation in the Presence of Recombinant PD-L1/MDA MB-231 Cells Expressing PDL1:
Alternatively, recombinant human PD-L1 (rh-PDL-1, cat no: 156-B7-100, R&D Systems) was also used as the source of PD-Ll.
as §2, with “Working concentrations were titrated from 10 μM to 1 μM. (eBioscience—650850-85); 0.05% Trypsin and 0.02% EDTA (SIGMA 59417C); 96-well format ELISA plates (Corning CLS3390); BD FACS caliber (E6016); Recombinant Human B7-H1/PDL1 Fc Chimera (rh-PDL-1, cat no: 156-B7-100);” left out
CFSE is a dye that passively diffuses into cells and binds to intracellular proteins. […] Cells were harvested and washed thrice with ice cold FACS buffer and % proliferation was analyzed by flow cytometry with 488 nm excitation and 521 nm emission filters.
as §3

recombinant mouse PDL-2 = target: T2, recombinant mouse PDL-2 (Mus musculus, UniProt Q9WUL5); assay: Rescue of splenocyte effector function, IFN-γ release by ELISA, recombinant mouse PDL-2; assay type: cell-based; conditions: mouse splenocytes, anti-CD3/CD28, PDL-2 100 ng/ml, 72 hrs, read-out: EC50 (nM), IFN-γ release, in presence of recombinant mouse PDL-2
T2 construct: purchased R&D Systems 1022-PL-100
T2 sequence (Q9WUL5 with tags, fused parts or gaps limits assumed): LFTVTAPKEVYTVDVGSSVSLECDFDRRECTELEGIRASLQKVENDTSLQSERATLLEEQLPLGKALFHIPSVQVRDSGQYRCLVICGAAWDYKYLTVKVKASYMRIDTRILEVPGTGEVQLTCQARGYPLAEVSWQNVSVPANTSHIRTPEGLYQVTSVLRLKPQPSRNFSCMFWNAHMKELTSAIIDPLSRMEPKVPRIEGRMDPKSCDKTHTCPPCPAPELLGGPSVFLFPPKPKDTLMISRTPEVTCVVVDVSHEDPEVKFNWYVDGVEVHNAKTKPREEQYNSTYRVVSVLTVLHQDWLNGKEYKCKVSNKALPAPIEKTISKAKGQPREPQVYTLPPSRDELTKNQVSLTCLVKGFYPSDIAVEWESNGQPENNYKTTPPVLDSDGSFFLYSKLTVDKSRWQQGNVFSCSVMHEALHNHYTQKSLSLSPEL
Procedure: (§4) 1×10^5 splenocytes (isolated as described earlier) were added to wells containing recombinant mouse PDL-1 (cat no: 1019-B7-100, R&D Systems) or PDL-2 (Cat no: 1022-PL-100, R&D Systems) (both at 100 ng/ml) and test peptidomimetics. Splenocytes were stimulated with anti-mouse CD3 (eBiosciences—16-0032) and anti-mouse CD28 antibody (eBiosciences—16-0281) (1 μg/ml each) and the culture was further incubated for 72 hrs at 37° C. with 5% CO2. After 72 hours of incubation the cell culture supernatants were collected after brief centrifugation of culture plates (200 g×5 mins at 4° C.) and processed for mouse IFN-γ measurement by ELISA following manufacturer's protocol (e Biosciences; 88-7314). In brief, 96 well ELISA plates were coated with 100 μl/well of capture antibody in coating buffer and incubated overnight at 4° C. Plates were washed five times with wash buffer and further blocked with 200 μl of 1× assay diluents for 1 hr at RT. Following wash step, 100 μl of cell culture supernatants were added to wells and further incubated for 2 hrs at RT. Appropriate standards were also included. After wash step, plate was incubated for one hour with 100 μl/well of detection antibody. The wash step was repeated and the plate was incubated for 30 minutes with 100 μl/well of Avidin-HRP. The plate was washed 7 times with wash buffer and incubated for 15 minutes with 100 μl/well of substrate solution. 50 μl of stop solution was added to each well and the plate was read at 450 nm. The absorbance values were then plotted against the standards and the concentration of IFN-γ was determined using GraphPad Prism software. Each experimental condition was carried out in triplicates. Percent IFN-γ release for each test compound concentration was calculated by normalising individual test compound IFN-γ values to anti-CD3+anti-CD28 stimulated IFN-γ value. The percent IFN-γ release by test compounds were calculated using following formula: % IFN-γ release=[(Test compound IFN-γ−PDL background control)/(anti-CD3+anti-CD28 positive control−PDL background control)]*100. […]

recombinant mouse PDL-1 = target: T3, recombinant mouse PDL-1 (Mus musculus, UniProt Q9EP73); assay: Rescue of splenocyte effector function, IFN-γ release by ELISA, recombinant mouse PDL-1; assay type: cell-based; conditions: mouse splenocytes, anti-CD3/CD28, PDL-1 100 ng/ml, 72 hrs, read-out: EC50 (nM), IFN-γ release, in presence of recombinant mouse PDL-1
T3 construct: purchased R&D Systems 1019-B7-100
T3 sequence (Q9EP73 with tags, fused parts or gaps limits assumed): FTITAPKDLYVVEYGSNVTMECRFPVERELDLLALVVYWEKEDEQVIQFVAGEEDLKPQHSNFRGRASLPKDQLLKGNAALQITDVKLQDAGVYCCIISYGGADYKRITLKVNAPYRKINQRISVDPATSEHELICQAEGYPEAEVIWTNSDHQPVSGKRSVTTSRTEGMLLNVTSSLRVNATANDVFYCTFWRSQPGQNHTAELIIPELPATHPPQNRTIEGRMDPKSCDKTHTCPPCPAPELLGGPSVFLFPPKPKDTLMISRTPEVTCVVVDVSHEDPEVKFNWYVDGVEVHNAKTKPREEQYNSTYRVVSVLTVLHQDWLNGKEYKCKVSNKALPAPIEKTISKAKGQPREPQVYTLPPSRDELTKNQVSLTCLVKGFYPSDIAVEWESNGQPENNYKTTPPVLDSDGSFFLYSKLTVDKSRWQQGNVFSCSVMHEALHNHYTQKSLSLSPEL
Procedure: as §4

SMILES: NC(=O)C[C@H](N)C(=O)NNC(=O)[C@@H](N)CO [Compound 1]
- Fold induction [1]: 2.8
- % Splenocyte proliferation [1]: 56%

SMILES: CC(O)[C@H](NC(=O)N[C@@H](CC(N)=O)C(=O)NNC(=O)[C@@H](N)CO)C(=O)O (some centres unmarked) [Compound 2]
- body weight reduction during the period of dosing ([2]; CT26 model): no body weight reduction
- clinical signs during the period of dosing ([2]; CT26 model): no clinical signs
- inhibition of tumour growth ([2]; CT26 s.c., dosing from Day 5): 46%
- EC50 (recombinant human PDL-1): 23 nM
- EC50 (recombinant mouse PDL-2): 40 nM
- EC50 (recombinant mouse PDL-1): 30 nM
- Fold induction [1]: 3.4
- % Splenocyte proliferation [1]: 68%

SMILES: CN[C@@H](CO)C(=O)NNC(=O)[C@H](CC(N)=O)NC(=O)N[C@H](C(=O)O)C(C)O (some centres unmarked) [Compound 4]
- Fold induction [1]: 2.8
- % Splenocyte proliferation [1]: 56%

SMILES: CC(O)[C@H](N)C(=O)N[C@@H](CC(N)=O)C(=O)NNC(=O)[C@@H](N)CO (some centres unmarked) [Compound 5]
- Fold induction [1]: 3
- % Splenocyte proliferation [1]: 60%

SMILES: CC(O)[C@H](NC(=O)N[C@@H](CC(N)=O)C(=O)NNC(=O)[C@@H](N)CO)C(N)=O (some centres unmarked) [Compound 6]
- Fold induction [1]: 2.3
- % Splenocyte proliferation [1]: 46%

SMILES: NC(=O)C[C@H](NC(=O)N[C@@H](CC(=O)O)C(=O)O)C(=O)NNC(=O)[C@@H](N)CO [Compound 7]
- Fold induction [1]: 2.9
- % Splenocyte proliferation [1]: 57%

SMILES: CCC(C)[C@H](NC(=O)N[C@@H](CC(N)=O)C(=O)NNC(=O)[C@@H](N)CO)C(=O)O (some centres unmarked) [Compound 8]
- Fold induction [1]: 3
- % Splenocyte proliferation [1]: 60%

SMILES: COC(=O)[C@@H](NC(=O)N[C@@H](CC(N)=O)C(=O)NNC(=O)[C@@H](N)CO)C(C)O (some centres unmarked) [Compound 10]
- Fold induction [1]: 3.4
- % Splenocyte proliferation [1]: 67%

SMILES: COC[C@H](N)C(=O)NNC(=O)[C@H](CC(N)=O)NC(=O)N[C@H](C(=O)O)C(C)O (some centres unmarked) [Compound 11]
- Fold induction [1]: 2.2
- % Splenocyte proliferation [1]: 44%

SMILES: CC(O)[C@H](N)C(=O)NNC(=O)[C@H](CC(N)=O)NC(=O)N[C@@H](CO)C(=O)O (some centres unmarked) [Compound 12]
- EC50 (recombinant human PDL-1): 22 nM
- EC50 (recombinant mouse PDL-2): 62 nM
- EC50 (recombinant mouse PDL-1): 27 nM

SMILES: CC(O)[C@@H](N)C(=O)NNC(=O)[C@@H](CC(N)=O)NC(=O)N[C@H](CO)C(=O)O (some centres unmarked) [Compound 13]
- EC50 (recombinant human PDL-1): 35 nM
- EC50 (recombinant mouse PDL-2): 30 nM
- EC50 (recombinant mouse PDL-1): 40 nM
- Fold induction [1]: 3.4
- % Splenocyte proliferation [1]: 67%

SMILES: CC(O)[C@H](NC(=O)N[C@H](CC(N)=O)C(=O)NNC(=O)[C@H](N)CO)C(=O)O (some centres unmarked) [Compound 15]
- Fold induction [1]: 2.9
- % Splenocyte proliferation [1]: 58%

SMILES: C[C@H](NC(=O)N[C@@H](CC(N)=O)C(=O)NNC(=O)[C@@H](N)CO)C(=O)O [Compound 17]
- Fold induction [1]: 3
- % Splenocyte proliferation [1]: 59%

SMILES: CNC(=O)N[C@H](C(=O)N[C@@H](CC(N)=O)C(=O)NNC(=O)[C@@H](N)CO)C(C)O (some centres unmarked) [Compound 18]
- Fold induction [1]: 3
- % Splenocyte proliferation [1]: 59%
